Data reported in US20080009418A1, “Selective Inhibitors” (Alchemia LTD., priority 2004, published 2008).

Assays:
Human Melanocortin (MC3) = molecular target: T1, Human Melanocortin (MC3) (Homo sapiens, UniProt P41968); experiment: Radioligand binding, human melanocortin MC3 membranes, FlashPlate, [125I]-NDP-αMSH; details: compound at 10 μM; for A3 radioligand binding inhibition: human melanocortin MC3 membranes
T1 construct: purchased Perkin Elmer Biosignal
Procedure, shortened: (§1)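 Cloned human receptor membranes were coated onto FlashPlate wells and incubated with radioligand and compound (added from a 0.5 mM DMSO daughter plate) for 1 hour at room temperature in the dark. Scintillation counting gave percent inhibition, with DMSO defining total and reference ligand defining non-specific binding.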

Human opioid (ORL1) = molecular target: T2, Human opioid (ORL1) (Homo sapiens, UniProt P41146); experiment: Radioligand binding, human opioid ORL1 membranes, FlashPlate, [125I]-Nociceptin; details: compound at 10 μM; for A10 radioligand binding inhibition: human ORL1 membranes
T2 construct: purchased Perkin Elmer Biosignal
Procedure, shortened: as §1

Human melanocortin (MC5) = molecular target: T3, Human melanocortin (MC5) (Homo sapiens, UniProt P33032); experiment: Radioligand binding, human melanocortin MC5 membranes, FlashPlate, [125I]-NDP-αMSH; details: compound at 10 μM; for A5 radioligand binding inhibition: human melanocortin MC5 membranes
T3 construct: purchased Perkin Elmer Biosignal
Procedure, shortened: as §1

Human κ-Opioid (KOP) = molecular target: T4, Human κ-Opioid (KOP) (Homo sapiens, UniProt P41145); experiment: Radioligand binding, human κ-opioid (KOP) membranes, filtration, [3H]-Diprenorphine; details: compound at 10 μM; for A2 radioligand binding inhibition: human κ-opioid (KOP) membranes
T4 construct: purchased Perkin Elmer Biosignal
Procedure, shortened: (§2)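 Filtration binding on cloned human receptor membranes (1 Unit/well), [125I]-Substance P for NK1 and [3H]-Diprenorphine for KOP, 1 h at room temperature. Filters PEI-presoaked, washed with cold 50 mM Tris-HCl pH 7.4, counted by scintillation; percent inhibition calculated, reference ligand defining non-specific binding.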

Human μ-opioid (MOP) = molecular target: T5, Human μ-opioid (MOP) (Homo sapiens, UniProt P35372); experiment: Radioligand binding, human μ-opioid (MOP) membranes, FlashPlate, [3H]-Naloxone; details: compound at 10 μM; for A7 radioligand binding inhibition: human μ-opioid (MOP) membranes
T5 construct: purchased Perkin Elmer Biosignal
Procedure, shortened: as §1

Human δ-opioid (DOP) = molecular target: T6, Human δ-opioid (DOP) (Homo sapiens, UniProt P41143); experiment: Radioligand binding, human δ-opioid (DOP) membranes, FlashPlate, [3H]-Bremazocine; details: compound at 10 μM; for A1 radioligand binding inhibition: human δ-opioid (DOP) membranes
T6 construct: purchased Perkin Elmer Biosignal
Procedure, shortened: as §1

[1] = molecular target: T7, Human melanin-concentrating hormone (MCH1) (Homo sapiens, UniProt Q99705); experiment: Radioligand binding, human melanin-concentrating hormone MCH1 membranes, FlashPlate, [125I]-S36057; details: compound at 10 μM; for A6 radioligand binding inhibition: human MCH1 membranes
T7 construct: purchased Perkin Elmer Biosignal
Procedure, shortened: as §1

[2] = molecular target: T8, Human neuropeptide Y (NPY-Y1) (Homo sapiens, UniProt P25929); experiment: Radioligand binding, human neuropeptide Y NPY-Y1 membranes, FlashPlate, [125I]-PYY; details: compound at 10 μM; for A9 radioligand binding inhibition: human NPY-Y1 membranes
T8 construct: purchased Perkin Elmer Biosignal
T8 sequence (P25929 1-384): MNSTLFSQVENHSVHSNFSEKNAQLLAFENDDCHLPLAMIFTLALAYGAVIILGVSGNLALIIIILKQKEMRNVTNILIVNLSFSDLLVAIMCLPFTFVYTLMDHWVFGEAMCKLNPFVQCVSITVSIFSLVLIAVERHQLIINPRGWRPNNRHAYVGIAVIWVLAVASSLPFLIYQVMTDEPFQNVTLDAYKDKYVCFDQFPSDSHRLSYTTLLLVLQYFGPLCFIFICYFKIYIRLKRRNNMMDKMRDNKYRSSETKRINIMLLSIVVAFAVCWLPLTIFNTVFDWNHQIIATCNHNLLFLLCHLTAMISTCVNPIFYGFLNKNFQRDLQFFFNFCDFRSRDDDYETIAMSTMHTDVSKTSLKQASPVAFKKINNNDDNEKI
Procedure, shortened: as §1

Human Melanocortin (MC4) = molecular target: T9, Human Melanocortin (MC4) (Homo sapiens, UniProt P32245); experiment: Radioligand binding, human melanocortin MC4 membranes, FlashPlate, [125I]-NDP-αMSH; details: compound at 10 μM; for A4 radioligand binding inhibition: human melanocortin MC4 membranes
T9 construct: purchased Perkin Elmer Biosignal
Procedure, shortened: as §1

Human neurokinin (NK1) = molecular target: T10, Human neurokinin (NK1) (Homo sapiens, UniProt P25103); experiment: Radioligand binding, human neurokinin NK1 membranes, filtration, [125I]-Substance P; details: compound at 10 μM; for A8 radioligand binding inhibition: human neurokinin NK1 membranes
T10 construct: purchased Perkin Elmer Biosignal
Procedure, shortened: as §2

Mouse urotensin (mUR2) = molecular target: T11, Mouse urotensin (mUR2) (Mus musculus, UniProt Q8VIH9); experiment: Radioligand binding, mouse urotensin mUR2 membranes, FlashPlate, [125I]-Urotensin II; details: compound at 10 μM; for A11 radioligand binding inhibition: mouse urotensin mUR2 membranes
T11 construct: purchased Perkin Elmer Biosignal
T11 sequence (Q8VIH9 1-385): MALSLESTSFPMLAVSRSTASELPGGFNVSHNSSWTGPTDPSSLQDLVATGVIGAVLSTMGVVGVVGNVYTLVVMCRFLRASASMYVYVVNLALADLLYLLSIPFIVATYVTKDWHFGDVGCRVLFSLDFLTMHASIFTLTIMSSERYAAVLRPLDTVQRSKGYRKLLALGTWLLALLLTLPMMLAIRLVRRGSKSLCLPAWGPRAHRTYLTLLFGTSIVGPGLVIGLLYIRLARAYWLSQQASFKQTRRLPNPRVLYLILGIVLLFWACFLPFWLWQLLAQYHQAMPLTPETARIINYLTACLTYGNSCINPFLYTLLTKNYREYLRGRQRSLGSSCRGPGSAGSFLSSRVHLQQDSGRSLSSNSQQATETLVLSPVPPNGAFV
Procedure, shortened: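 Cloned mouse urotensin (mUR2) receptor membranes from Perkin Elmer Biosignal were immobilized in FlashPlate microplates using a proprietary coating. Each well got 19.5 μl buffer, then 0.5 μl of DMSO, reference ligand, or compound. Adding 5 μl of [125I]-Urotensin II, diluted to 5× final concentration in binding buffer, started binding. Plates were sealed with TopSeal-A and incubated 1 hour at room temperature in the dark. Wells were counted for 30 seconds each on a TopCount after a 60-second delay, and percentage inhibition was calculated.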

T9 sequence (P32245 whole entry): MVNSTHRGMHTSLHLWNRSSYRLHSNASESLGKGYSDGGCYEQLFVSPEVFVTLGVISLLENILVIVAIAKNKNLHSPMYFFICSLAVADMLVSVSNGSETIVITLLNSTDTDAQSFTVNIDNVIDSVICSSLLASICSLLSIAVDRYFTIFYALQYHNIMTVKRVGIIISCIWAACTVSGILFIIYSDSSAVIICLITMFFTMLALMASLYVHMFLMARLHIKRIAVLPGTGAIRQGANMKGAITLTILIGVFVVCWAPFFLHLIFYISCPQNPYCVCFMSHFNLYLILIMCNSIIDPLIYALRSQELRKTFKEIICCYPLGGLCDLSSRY
T5 sequence (P35372 whole entry): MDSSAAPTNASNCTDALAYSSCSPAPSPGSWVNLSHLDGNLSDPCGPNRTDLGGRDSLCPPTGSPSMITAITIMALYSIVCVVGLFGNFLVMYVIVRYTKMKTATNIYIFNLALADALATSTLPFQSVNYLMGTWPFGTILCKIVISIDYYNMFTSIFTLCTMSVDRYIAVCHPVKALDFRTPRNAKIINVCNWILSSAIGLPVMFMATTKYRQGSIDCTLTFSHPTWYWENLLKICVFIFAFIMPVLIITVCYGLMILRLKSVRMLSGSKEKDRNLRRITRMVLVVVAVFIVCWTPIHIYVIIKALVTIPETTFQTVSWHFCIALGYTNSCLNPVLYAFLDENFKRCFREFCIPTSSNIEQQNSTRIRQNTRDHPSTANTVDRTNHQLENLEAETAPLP
T3 sequence (P33032 whole entry): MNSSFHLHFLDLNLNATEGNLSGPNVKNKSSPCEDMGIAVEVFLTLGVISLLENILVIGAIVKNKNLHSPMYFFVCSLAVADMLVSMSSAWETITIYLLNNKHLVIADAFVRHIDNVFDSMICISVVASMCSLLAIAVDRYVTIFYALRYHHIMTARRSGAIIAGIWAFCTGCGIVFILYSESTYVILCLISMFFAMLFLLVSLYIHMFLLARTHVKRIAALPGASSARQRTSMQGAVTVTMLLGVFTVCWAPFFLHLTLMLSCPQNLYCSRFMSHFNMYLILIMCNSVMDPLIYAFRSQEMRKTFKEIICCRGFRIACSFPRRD
T7 sequence (Q99705 whole entry): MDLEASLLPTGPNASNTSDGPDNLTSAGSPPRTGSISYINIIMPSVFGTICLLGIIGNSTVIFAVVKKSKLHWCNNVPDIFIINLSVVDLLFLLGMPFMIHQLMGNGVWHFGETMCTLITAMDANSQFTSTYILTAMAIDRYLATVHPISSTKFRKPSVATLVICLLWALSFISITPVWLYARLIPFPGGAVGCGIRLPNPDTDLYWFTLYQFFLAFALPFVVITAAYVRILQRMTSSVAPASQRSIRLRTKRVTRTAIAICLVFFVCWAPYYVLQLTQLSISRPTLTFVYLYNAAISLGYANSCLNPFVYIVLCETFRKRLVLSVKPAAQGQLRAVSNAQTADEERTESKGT
T1 sequence (P41968 whole entry): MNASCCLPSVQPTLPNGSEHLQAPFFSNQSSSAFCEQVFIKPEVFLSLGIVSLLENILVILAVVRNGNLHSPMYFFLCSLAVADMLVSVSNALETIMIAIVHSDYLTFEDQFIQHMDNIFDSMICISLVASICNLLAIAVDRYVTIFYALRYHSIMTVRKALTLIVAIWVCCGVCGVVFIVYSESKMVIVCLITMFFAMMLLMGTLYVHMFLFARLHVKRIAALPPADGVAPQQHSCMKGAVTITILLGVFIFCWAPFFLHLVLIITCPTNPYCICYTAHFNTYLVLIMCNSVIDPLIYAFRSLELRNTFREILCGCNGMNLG
T10 sequence (P25103 whole entry): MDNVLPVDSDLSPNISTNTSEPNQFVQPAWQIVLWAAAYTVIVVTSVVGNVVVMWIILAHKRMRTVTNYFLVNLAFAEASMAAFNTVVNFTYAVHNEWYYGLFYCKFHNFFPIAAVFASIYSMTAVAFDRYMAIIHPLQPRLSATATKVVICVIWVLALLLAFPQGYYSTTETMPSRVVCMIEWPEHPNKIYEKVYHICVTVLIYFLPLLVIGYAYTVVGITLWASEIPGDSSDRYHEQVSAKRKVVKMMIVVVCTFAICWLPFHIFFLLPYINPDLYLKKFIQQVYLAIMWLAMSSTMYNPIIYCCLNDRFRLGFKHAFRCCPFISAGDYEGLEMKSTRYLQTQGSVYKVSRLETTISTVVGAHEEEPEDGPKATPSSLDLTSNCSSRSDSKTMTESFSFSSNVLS
T4 sequence (P41145 whole entry): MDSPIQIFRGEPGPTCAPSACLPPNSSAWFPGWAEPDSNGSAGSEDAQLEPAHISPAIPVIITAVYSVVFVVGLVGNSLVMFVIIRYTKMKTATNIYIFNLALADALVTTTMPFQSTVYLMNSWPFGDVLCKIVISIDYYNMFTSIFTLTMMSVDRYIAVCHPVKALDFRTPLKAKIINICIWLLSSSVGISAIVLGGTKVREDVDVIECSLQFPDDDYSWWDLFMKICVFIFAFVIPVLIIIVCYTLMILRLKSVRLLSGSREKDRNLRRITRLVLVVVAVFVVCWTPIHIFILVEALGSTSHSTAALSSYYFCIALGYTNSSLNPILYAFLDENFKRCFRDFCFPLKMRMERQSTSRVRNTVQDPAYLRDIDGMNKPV
T2 sequence (P41146 whole entry): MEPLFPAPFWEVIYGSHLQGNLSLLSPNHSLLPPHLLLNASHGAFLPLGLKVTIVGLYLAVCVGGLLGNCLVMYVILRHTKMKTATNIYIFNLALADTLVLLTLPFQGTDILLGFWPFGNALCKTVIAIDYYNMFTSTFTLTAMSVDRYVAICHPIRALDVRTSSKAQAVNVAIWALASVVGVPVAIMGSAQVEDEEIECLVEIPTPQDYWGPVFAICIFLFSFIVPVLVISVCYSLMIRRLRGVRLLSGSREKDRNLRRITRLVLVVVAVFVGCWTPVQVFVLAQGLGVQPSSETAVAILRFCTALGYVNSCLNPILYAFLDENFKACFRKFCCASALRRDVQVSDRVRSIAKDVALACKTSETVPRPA
T6 sequence (P41143 whole entry): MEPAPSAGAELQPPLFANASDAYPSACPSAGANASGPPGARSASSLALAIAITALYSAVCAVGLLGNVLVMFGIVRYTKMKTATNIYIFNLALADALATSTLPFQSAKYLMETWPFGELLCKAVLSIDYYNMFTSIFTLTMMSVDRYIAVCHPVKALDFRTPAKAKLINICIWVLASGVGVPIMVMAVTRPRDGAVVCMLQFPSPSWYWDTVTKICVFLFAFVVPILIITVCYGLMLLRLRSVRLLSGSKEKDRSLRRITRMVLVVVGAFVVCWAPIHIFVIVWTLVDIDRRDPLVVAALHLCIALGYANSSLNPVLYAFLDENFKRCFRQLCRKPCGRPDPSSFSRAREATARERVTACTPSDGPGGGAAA

| Compound | A3 radioligand binding inhibition (Human Melanocortin (MC3)) | A10 radioligand binding inhibition (Human opioid (ORL1)) | A5 radioligand binding inhibition (Human melanocortin (MC5)) | A2 radioligand binding inhibition (Human κ-Opioid (KOP)) | A7 radioligand binding inhibition (Human μ-opioid (MOP)) | A1 radioligand binding inhibition (Human δ-opioid (DOP)) | A9 radioligand binding inhibition [2] | A4 radioligand binding inhibition (Human Melanocortin (MC4)) | A8 radioligand binding inhibition (Human neurokinin (NK1)) | A11 radioligand binding inhibition (Mouse urotensin (mUR2)) | other results |
| --- | --- | --- | --- | --- | --- | --- | --- | --- | --- | --- | --- |
| CO[C@H]1[C@H](O)[C@@H](COCc2ccc(Cl)cc2)OC(OCc2ccc3ccccc3c2)[C@@H]1NC(=O)CCCN (stereo partly drawn) [compound 80] | − (“−” indicates less than 50% inhibition at 10 μM) | − (“−” indicates less than 50% inhibition at 10 μM) | + (“+” indicates greater than 50% inhibition at 10 μM) | − (“−” indicates less than 50% inhibition at 10 μM) | − (“−” indicates less than 50% inhibition at 10 μM) | − (“−” indicates less than 50% inhibition at 10 μM) | − (“−” indicates less than 50% inhibition at 10 μM) | + (“+” indicates greater than 50% inhibition at 10 μM) | + (“+” indicates greater than 50% inhibition at 10 μM) | − (“−” indicates less than 50% inhibition at 10 μM) | A6 radioligand binding inhibition [1]: − (“−” indicates less than 50% inhibition at 10 μM) |
| COC[C@H]1OC(OCc2ccc(-c3ccccc3)cc2)[C@H](NC(=O)CCCNC(=N)N)[C@@H](OCc2ccccc2)[C@@H]1O (stereo partly drawn) [compound 8] | − (“−” indicates less than 50% inhibition at 10 μM) | − (“−” indicates less than 50% inhibition at 10 μM) | − (“−” indicates less than 50% inhibition at 10 μM) | − (“−” indicates less than 50% inhibition at 10 μM) | − (“−” indicates less than 50% inhibition at 10 μM) | − (“−” indicates less than 50% inhibition at 10 μM) | − (“−” indicates less than 50% inhibition at 10 μM) | − (“−” indicates less than 50% inhibition at 10 μM) | + (“+” indicates greater than 50% inhibition at 10 μM) | − (“−” indicates less than 50% inhibition at 10 μM) | A6 radioligand binding inhibition ([1]; 10 µM): + (“+” indicates greater than 50% inhibition at 10 μM) |
| COCC1OC(OCc2ccccc2)C(NC(=O)CCNC(=N)N)C(OCc2ccc3ccccc3c2)C1O (stereo not drawn) [compound 191] | – | – | – | – | – | – | – | – | – | – | A3: inhibition of radioligand binding (Human Melanocortin (MC3); [125I]-NDP-αMSH, FlashPlate): − (“−” indicates less than 50% inhibition at 10 μM); A10: inhibition of radioligand binding (Human opioid (ORL1); [125I]-Nociceptin, FlashPlate): − (“−” indicates less than 50% inhibition at 10 μM); A5: inhibition of radioligand binding (Human melanocortin (MC5); [125I]-NDP-αMSH, FlashPlate): + (“+” indicates greater than 50% inhibition at 10 μM); A2: inhibition of radioligand binding (Human κ-Opioid (KOP); [3H]-Diprenorphine, filtration): − (“−” indicates less than 50% inhibition at 10 μM); A7: inhibition of radioligand binding (Human μ-opioid (MOP); [3H]-Naloxone, FlashPlate): − (“−” indicates less than 50% inhibition at 10 μM); A1: inhibition of radioligand binding (Human δ-opioid (DOP); [3H]-Bremazocine, FlashPlate): − (“−” indicates less than 50% inhibition at 10 μM); A6: inhibition of radioligand binding ([1]; [125I]-S36057, FlashPlate): + (“+” indicates greater than 50% inhibition at 10 μM); A9: inhibition of radioligand binding ([2]; [125I]-PYY, FlashPlate): − (“−” indicates less than 50% inhibition at 10 μM); A4: inhibition of radioligand binding (Human Melanocortin (MC4); [125I]-NDP-αMSH, FlashPlate): + (“+” indicates greater than 50% inhibition at 10 μM); A8: inhibition of radioligand binding (Human neurokinin (NK1); [125I]-Substance P, filtration): + (“+” indicates greater than 50% inhibition at 10 μM); A11: inhibition of radioligand binding (Mouse urotensin (mUR2); [125I]-Urotensin II, FlashPlate): − (“−” indicates less than 50% inhibition at 10 μM) |
